Active and inactive are the calls of the source. No cut-off for these calls is given here.
How the values were obtained:
Format in all cases: functional, cell-based
MCF7 [1] = experiment: Cytotoxicity against human MCF7 cells at 10 to 100 uM after 48 hrs by MTT assay
HT-29 [2] = experiment: Cytotoxicity against human HT-29 cells at 10 to 100 uM after 48 hrs by MTT assay
HCT-116 = experiment: Cytotoxicity against human HCT116 cells at 10 to 100 uM after 48 hrs by MTT assay
A549 [3] = experiment: Cytotoxicity against human A549 cells at 10 to 100 uM after 48 hrs by MTT assay
A549 [4] = experiment: Cytotoxicity against human A549 cells after 48 hrs by MTT assay
MCF7 [5] = experiment: Cytotoxicity against human MCF7 cells after 48 hrs by MTT assay
HT-29 [6] = experiment: Cytotoxicity against human HT-29 cells after 48 hrs by MTT assay

## O=C/C=C\c1ccc(O)cc1
MCF7 [1]
  Activity: Active
HT-29 [2]
  Activity: Active
HCT-116
  Activity: Active
A549 [3]
  Activity: Active

## COc1cc(/C=C\C=O)ccc1O
MCF7 [1]
  Activity: Active
HT-29 [2]
  Activity: Active
HCT-116
  Activity: Active
A549 [4]
  Activity: Dose-dependent effect
A549 [3]
  Activity: Active
MCF7 [5]
  Activity: Dose-dependent effect
HT-29 [6]
  Activity: Dose-dependent effect

## O=Cc1ccc(O)cc1
MCF7 [1]
  Activity: Active
HT-29 [2]
  Activity: Active
HCT-116
  Activity: Active
A549 [3]
  Activity: Active

## COc1cc(C(=O)C(CO)c2ccc(O)c(OC)c2)ccc1O (centres undefined)
MCF7 [1]
  Activity: Active
HT-29 [2]
  Activity: Active
HCT-116
  Activity: Active
A549 [3]
  Activity: Active

## COc1cc([C@H]2Oc3c(OC)cc(/C=C/C=O)cc3[C@@H]2CO)ccc1O
MCF7 [1]
  Activity: Active
HT-29 [2]
  Activity: Active
HCT-116
  Activity: Active
A549 [4]
  Activity: Dose-dependent effect
A549 [3]
  Activity: Active
MCF7 [5]
  Activity: Dose-dependent effect
HT-29 [6]
  Activity: Dose-dependent effect

## OC[C@@H]1[C@@H](Cc2ccc(O)cc2)CO[C@H]1c1ccc(O)cc1
MCF7 [1]
  Activity: Active
HT-29 [2]
  Activity: Active
HCT-116
  Activity: inactive
A549 [4]
  Activity: Dose-dependent effect
A549 [3]
  Activity: Active
MCF7 [5]
  Activity: Dose-dependent effect
HT-29 [6]
  Activity: Dose-dependent effect

## COc1cc(O)cc(C=O)c1
MCF7 [1]
  Activity: Active
HT-29 [2]
  Activity: Active
HCT-116
  Activity: Active
A549 [3]
  Activity: Active

## COc1cc([C@@H]2Oc3c(OC)cc(/C=C/C=O)cc3[C@H]2CO)ccc1O
MCF7 [1]
  Activity: Active
HT-29 [2]
  Activity: Active
HCT-116
  Activity: Active
A549 [4]
  Activity: Dose-dependent effect
A549 [3]
  Activity: Active
MCF7 [5]
  Activity: Dose-dependent effect
HT-29 [6]
  Activity: Dose-dependent effect
